Reference: ChEMBL document CHEMBL1201862, “PubChem BioAssay data set” (2004)
Several values for one entry are separate records, joined by “and”; a condition that tells them apart may be missing. Identical values can stand only once.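 Where inhibition never reached the appropriate level, the endpoint shown equals the highest concentration tested. Otherwise, values were interpolated linearly from a five-concentration, 48-hour dose response in 96-well plates. Here, GI50 denotes the concentration required for 50% inhibition of growth.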 Activity calls are given as the source filed them. Rule as the data show it: active = GI50 up to about 1.1 µM and inactive = higher.

Columns and labels:
Experiment in all cases: inhibition of tumour cell growth, NCI panel, 48 h
[1] = tested on: MDA-MB-435
[2] = tested on: U-251
[3] = tested on: MDA-MB-231
[4] = tested on: T47D
[5] = tested on: ACHN
[6] = tested on: NCI-H23
[7] = tested on: IGROV-1
[8] = tested on: SK-OV-3
[9] = tested on: RXF 393
[10] = tested on: OVCAR-3
[11] = tested on: HOP-92
[12] = tested on: DU-145
[13] = tested on: UACC-257
[14] = tested on: OVCAR-8
[15] = tested on: KM12
[16] = tested on: Hs-578T
[17] = tested on: HCC 2998
[18] = tested on: SF-268
[19] = tested on: MOLT-4
[20] = tested on: SK-MEL-5

SMILES	GI50 [1]	GI50 [2]	GI50 [3]	GI50 [4]	GI50 [5]	GI50 [6]	GI50 [7]	GI50 [8]	GI50 [9]	GI50 [10]	GI50 [11]	GI50 [12]	GI50 [13]	GI50 [14]	GI50 [15]	GI50 [16]	GI50 [17]	GI50 [18]	GI50 [19]	GI50 [20]
Cc1ncc([N+](=O)[O-])n1CCNC(=O)CCCn1cnc([N+](=O)[O-])n1	> 100 µM (inactive)	> 100 µM (inactive)	> 100 µM (inactive)	> 100 µM (inactive)	> 100 µM (inactive)	> 100 µM (inactive)	> 100 µM (inactive)	> 100 µM (inactive)	> 100 µM (inactive)	> 100 µM (inactive)	> 100 µM (inactive)	> 100 µM (inactive)	> 100 µM (inactive)	> 95.9 µM (inactive)	> 100 µM (inactive)	> 100 µM (inactive)	> 100 µM (inactive)	> 100 µM (inactive)	> 100 µM (inactive)	> 72.4 µM (inactive)
Oc1cc2c3c(c1)c1cc4c(cc1c[n+]3CC2)OCO4	5.5 µM (inactive)	0.971 µM (active)	2.79 µM (inactive)	3.47 µM (inactive)	3.1 µM (inactive)	1.9 µM (inactive)	2.4 µM (inactive)	16.1 µM (inactive)	24.5 µM (inactive)	4.88 µM (inactive)	15.2 µM (inactive)	3.23 µM (inactive)	8.83 µM (inactive)	0.748 µM (active)	1.82 µM (inactive)	0.906 µM (active)	4.4 µM (inactive)	0.224 µM (active)	0.242 µM (active)	4.97 µM (inactive)
O=C1/C(=C\c2cccs2)Oc2ccccc21	98.6 µM (inactive)	51.6 µM (inactive)	71.1 µM (inactive)	2.99 µM (inactive)	47.2 µM (inactive)	40.6 µM (inactive)	26.7 µM (inactive)	38 µM (inactive)	65.8 µM (inactive)	24.9 µM (inactive)	35.2 µM (inactive)	50.9 µM (inactive)	63.1 µM (inactive)	70.8 µM (inactive)	59.4 µM (inactive)	45.7 µM (inactive)	64.6 µM (inactive)	51.1 µM (inactive)	33.9 µM (inactive)	51.6 µM (inactive)
Cc1ccc2[nH]c(=N/c3ccccc3C)/c(=N\c3ccccc3C)[nH]c2c1	32.2 µM (inactive)	26.1 µM (inactive)	17.1 µM (inactive)	19.3 µM (inactive)	31.3 µM (inactive)	15.7 µM (inactive)	20 µM (inactive)	43 µM (inactive)	17.3 µM (inactive)	22.4 µM (inactive)	19.4 µM (inactive)	41.1 µM (inactive)	25.6 µM (inactive)	34.3 µM (inactive)	17.6 µM (inactive)	24.1 µM (inactive)	23.5 µM (inactive)	48.1 µM (inactive)	> 100 µM (inactive)	22.1 µM (inactive)
CC1=NN(c2ccc(C)cc2)C2(C1)SCC(=O)N2c1nc2ccccc2s1 (centres undefined)	16.4 µM (inactive)	16.6 µM (inactive)	15.5 µM (inactive)	11.8 µM (inactive)	15.6 µM (inactive)	24 µM (inactive)	12.9 µM (inactive)	22.1 µM (inactive)	13.3 µM (inactive)	12.2 µM (inactive)	49.3 µM (inactive)	29.5 µM (inactive)	19.5 µM (inactive)	31.6 µM (inactive)	27 µM (inactive)	32.1 µM (inactive)	22.9 µM (inactive)	20.2 µM (inactive)	9.66 µM (inactive)	11.4 µM (inactive)
O=c1c(Br)cc2c(-c3ccccc3)c3cc(Br)c(O)c(Br)c3oc-2c1Br	> 100 µM (inactive)	> 100 µM (inactive)	> 100 µM (inactive)	> 100 µM (inactive)	> 100 µM (inactive)	> 100 µM (inactive)	> 100 µM (inactive)	48.4 µM (inactive)	> 100 µM (inactive)	> 100 µM (inactive)	> 100 µM (inactive)	> 100 µM (inactive)	> 100 µM (inactive)	> 100 µM (inactive)	> 100 µM (inactive)	> 100 µM (inactive)	83.8 µM (inactive)	> 100 µM (inactive)	29.1 µM (inactive)	> 100 µM (inactive)
CC(C)(C)OC(=O)N1C(OP(=O)(Oc2ccccc2)Oc2ccccc2)=COc2cccnc21	39.4 µM (inactive)	40.5 µM (inactive)	71 µM (inactive)	23 µM (inactive)	29.9 µM (inactive)	45.5 µM (inactive)	42.6 µM (inactive)	98.2 µM (inactive)	91.8 µM (inactive)	72.3 µM (inactive)	26.1 µM (inactive)	> 100 µM (inactive)	30 µM (inactive)	43.2 µM (inactive)	31.4 µM (inactive)	86.5 µM (inactive)	42.1 µM (inactive)	63.2 µM (inactive)	17.7 µM (inactive)	18.4 µM (inactive)
NCCOCC(N)C(=O)O (centres undefined)	> 100 µM (inactive)	> 100 µM (inactive)	> 100 µM (inactive)	> 100 µM (inactive)	> 100 µM (inactive)	> 100 µM (inactive)	> 100 µM (inactive)	> 100 µM (inactive)	> 100 µM (inactive)	> 100 µM (inactive)	> 100 µM (inactive)	> 100 µM (inactive)	> 100 µM (inactive)	> 100 µM (inactive)	> 100 µM (inactive)	> 100 µM (inactive)	> 100 µM (inactive)	> 100 µM (inactive)	> 100 µM (inactive)	> 100 µM (inactive) and > 95.7 µM (inactive)
OC(CC(O)(C(F)(F)Cl)C(F)(F)Cl)c1ccccc1 (centres undefined)	< 0.001 µM (active)	> 10 µM (inactive)	> 10 µM (inactive)	> 10 µM (inactive)	> 10 µM (inactive)	> 10 µM (inactive)	0.0258 µM (active)	> 10 µM (inactive)	> 10 µM (inactive)	> 10 µM (inactive)	> 10 µM (inactive)	> 10 µM (inactive)	> 10 µM (inactive)	> 10 µM (inactive)	> 10 µM (inactive)	> 10 µM (inactive)	> 10 µM (inactive)	> 10 µM (inactive)	> 10 µM (inactive)	0.00809 µM (active)
O=C(Cc1nccc2c1[nH]c1ccccc12)OC1C#CCSCC#C/C=C\1 (centres undefined)	75.7 µM (inactive)	> 100 µM (inactive)	> 100 µM (inactive)	72.1 µM (inactive)	> 100 µM (inactive)	–	> 100 µM (inactive)	> 100 µM (inactive)	> 100 µM (inactive)	95.9 µM (inactive)	> 100 µM (inactive)	> 100 µM (inactive)	> 100 µM (inactive)	> 100 µM (inactive)	> 100 µM (inactive)	> 100 µM (inactive)	> 100 µM (inactive)	> 100 µM (inactive)	39.5 µM (inactive)	> 100 µM (inactive)
S=C(N/N=C(\c1ccccc1)c1ccccn1)NC1CCCCC1	31.6 µM (inactive)	0.979 µM (active)	1.57 µM (inactive)	3.48 µM (inactive)	0.571 µM (active)	1.6 µM (inactive)	0.31 µM (active)	11.5 µM (inactive)	> 100 µM (inactive)	2.75 µM (inactive)	> 100 µM (inactive)	29.3 µM (inactive)	2.24 µM (inactive)	0.34 µM (active)	13.1 µM (inactive)	> 35 µM (inactive)	> 61.4 µM (inactive)	2.66 µM (inactive)	0.54 µM (active)	13.1 µM (inactive)
CCOC(=O)C1(O)C(=O)C2=C3C(=O)OC(C4OC(=O)c5c(c(O)c(O)c(O)c5C31)-c1c(cc(O)c(O)c1O)C(=O)OC1COC(=O)c3cc(O)c(O)c(O)c3-c3c(cc(O)c(O)c3O)C(=O)OC14)[C@@H]2O (some centres undefined)	13 µM (inactive)	19.2 µM (inactive)	15.2 µM (inactive)	24.8 µM (inactive)	17.8 µM (inactive)	16.3 µM (inactive)	26 µM (inactive)	61.8 µM (inactive)	17.5 µM (inactive)	32.6 µM (inactive)	23 µM (inactive)	31 µM (inactive)	28.5 µM (inactive)	19.8 µM (inactive)	33.7 µM (inactive)	30.8 µM (inactive)	25.7 µM (inactive)	22.4 µM (inactive)	22 µM (inactive)	14.3 µM (inactive)
CCNC(=S)/N=c1\sc(NCC)nc2sc3c(c12)CCN(N1CCc2c(sc4nc(NCC)s/c(=N\C(=S)NCC)c24)C1)C3	97.5 µM (inactive)	33.3 µM (inactive)	29.5 µM (inactive)	42.4 µM (inactive)	62.8 µM (inactive)	> 100 µM (inactive)	39.8 µM (inactive)	> 100 µM (inactive)	8.93 µM (inactive)	> 100 µM (inactive)	5.31 µM (inactive)	77.8 µM (inactive)	> 100 µM (inactive)	60.4 µM (inactive)	40.2 µM (inactive)	> 100 µM (inactive)	> 100 µM (inactive)	> 100 µM (inactive)	34.1 µM (inactive)	31.8 µM (inactive)
